Source: PMC11662161 (Neuro-Oncology Advances, 2024)
“And” between values parts separate entries of the source, which are not always exact repeats. Identical values can stand only once. Like-named read-outs stand apart in the source and are kept apart here.

Key:
[1] = system: recurrent high-grade glioma (HGG); conditions: ref Dmello et al., submitted to Neuro-Oncology Advances, cited from earlier work
Excerpt: Variable response to paclitaxel between patients is a well-known phenomenon for several cancers, with ~50% of patients being susceptible to this drug as a monotherapy. We recently reported endoplasmic reticulum translocon complex protein SSR3 as a predictive biomarker for glioma and breast cancer susceptibility to this drug.[22] In a companion manuscript (Dmello et al., submitted to Neuro-Oncology Advances), we report an analysis of available tumor samples from this phase II trial (NCT01967810), where we evaluated the correlation with baseline SSR3 expression with OS on this cohort. This study ...

[2] = system: patients with recurrent HGG; experiment: Phase II trial NCT01967810: safety and tolerability (adverse events, NCI CTCAE v4.0; treatment discontinuation)
Method: Subsequently, a total of 69 patients were enrolled at 600 mg/m^2 as a starting dose. Dose reductions or delays were allowed if toxicity was observed. Patients were monitored for a minimum of 1 h after the completion of each infusion.
Dose reductions were mandatory for all patients who experienced any (life-threatening) Grade 4 toxicity, and for selected Grade 3 toxicities, such as Grade 3 pneumonitis, Grade 3 peripheral neuropathy or CNS toxicity, or Grade 3 cardiac adverse events (AEs).
Evaluation of safety included the analysis of AEs and the analysis of laboratory and vital signs data using the safety population. Verbatim descriptions of AEs were mapped according to the Medical Dictionary for Regulatory Activities (MedDRA) v17.0 or later thesaurus terms and graded according to the NCI CTCAE v4.0. […] Laboratory data was analyzed with shift tables and summaries of change from baseline to maximum post-treatment value based on local lab normal ranges. Change from baseline in vital signs were summarized. Neurocognitive function test data was analyzed by descriptive statistics (mean, SD and median) and change in neurocognitive function from baseline to each follow-up time point was categorized as improved, stable, or declined based on the reliable change index (RCI) for each test.

[3] = system: brain metastases from breast tumors and other advanced solid tumors; conditions: doses ≥ 420 mg/m^2, cited from earlier work
Excerpt: (§1) The overall safety profile was favorable and consistent with the known side effect profile of unconjugated paclitaxel.

[4] = system: recurrent glioma tumors; conditions: following a single intravenous infusion; cited from earlier work
Excerpt: as §1

[5] = system: patients with recurrent HGG; experiment: Phase II trial NCT01967810: neurocognitive function testing (HVLT-R, TMT A/B, COWA; reliable change index); assay type: in vivo, human; conditions: for neurocognitive function stable or improved (RCI), across the battery of tests: end of treatment visit
Method: The end of treatment assessment was only performed if no neurocognitive assessment was done within 30 (± 3) days. Information regarding the patient’s demographic background was collected. Neurocognitive test administrators were trained and provided with a manual to ensure standardized test administration. Neurocognitive test results were evaluated and read centrally. Three domains of neurocognitive function were measured as exploratory endpoints in this study: memory, visuomotor scanning speed (eg, complex visual scanning with a motor component), and executive function (eg, mental flexibility). The neurocognitive battery included the following tests: Hopkins Verbal Learning Tests—Revised (HVLT-R Total Recall, Delayed Recall, Delayed Recognition), Trail Making Test Part A and Part B[18] (TMBTA, TMBTB), and Controlled Oral Word Association (COWA).[19] […]

[6] = system: recurrent high-grade glioma (HGG); experiment: Phase II trial NCT01967810: efficacy (RANO response, PFS, OS); assay type: in vivo, human; conditions: for duration (of response) rate: identical at 3, 6 and 12 months
Excerpt: The protocol was reviewed and approved by the institutional review board of each participating center. All patients gave written informed consent for trial participation. According to 2007 WHO classification used in this study, HGG included grade 3 AGs such as anaplastic astrocytomas (AAs), anaplastic oligodendrogliomas (AOs), and anaplastic oligoastrocytomas (AOAs), as well as grade 4 GBM.[16] […] Additionally, a Karnofsky Performance Scale (KPS) score ≥ 80, neurologic stability with patients receiving stable doses of corticosteroids and anticonvulsants, and normal hepatic, renal, and hematologic function with ≥ 3 months of expected survival were requirements for inclusion. In patients with gliomas refractory to bevacizumab, radiological confirmation of tumor progression during bevacizumab therapy was necessary.
Gadolinium-enhanced magnetic resonance imaging of the brain was used to evaluate disease extent beginning at baseline and continued every two treatment cycles (ie, every 6 ± 2 weeks) until disease progression or unacceptable treatment toxicity. […] The Response Assessment in Neuro-Oncology (RANO) was utilized for two-dimensional intracranial tumor assessment.[17]
The primary objectives of the study were to determine (1) the objective response rate (ORR) in bevacizumab-naïve recurrent GBM patients (Arm 1), (2) progression-free survival rate at 3 months (PFS3) in the bevacizumab-refractory recurrent GBM patients (Arm 2), and (3) ORR in recurrent AG patients (Arm 3). The arms were predefined. Bevacizumab was not continued in bevacizumab-refractory patients.
The secondary objectives of this study were to determine (1) the ORR in Arm 2; (2) number of patients without progression at 3, 6, and 12 months in Arms 1 and 3; (3) number of patients without progression at 6 and 12 months in Arm 2; (4) median progression-free survival in each arm; (5) median duration of response in each arm; (6) median overall survival (OS) in each arm; (7) safety and tolerability; and (8) plasma pharmacokinetic profile.
ORR was defined as the proportion of patients with a CR or PR. The assessment was made according to RANO criteria based on the investigator’s assessment.[17] The ORR was the primary endpoint for Arms 1 and 3 and a secondary endpoint for Arm 2. ORR for each arm was calculated, and a 2-sided 95% confidence interval was provided using the exact method based on the binomial distribution. PFS was defined as the time from study enrollment to documented disease progression as determined by the local investigator, clear clinical progression in the absence of a brain MRI determination of progression, or death from any cause, whichever occurred first. PFS was the primary endpoint for Arm 2 and a secondary endpoint for Arms 1 and 3. Patients with a clinical determination of progression underwent an MRI assessment. If a clinical determination of progression for a patient was confirmed by an MRI, the date of the MRI was considered as the progression date for that patient. The data for patients who were still alive and free from disease progression at the time of data cutoff were administratively censored on the last assessment (or, if no post-baseline tumor assessment, at the time of first dose plus 1 day). Data for patients who were lost to follow-up prior to documented disease progression were censored at the last disease assessment date when the patient was known to be disease progression-free. Kaplan–Meier methodology was used to estimate the 3-month PFS rate, and 95% confidence intervals for PFS rate were computed using Greenwood’s formula by arms. In addition, the median PFS was calculated for each arm.

[7] = % of patients, N = 73, all arms
[8] = % of patients, N = 73, table cell prints n (%)

For paclitaxel trevatide [ANG1005], the “median OS” value ([1]; patients with high SSR3 expression, 95% CI 14.59, NA, P = .2 vs low) is listed as 18 months, the “median OS” value ([1]; patients with low SSR3 expression, 95% CI 5.41, NA) is listed as 9 months and the “most common AEs: alopecia” value [2, 7] is listed as 31.5% and 32%. For the same substance, the “most common AEs: fatigue” value [2, 7] was 30.1% and 30%, the “most common AEs: hematologic” value [2, 7] was 32.9% and the “most commonly reported AEs: neutropenia” value [2, 7] was 33%. For the same substance, the “patients with a Grade 5 SAE” value ([2]; % of patients, N = 73, 3 patients) was 4.1%, the “patients with a Grade 4 SAE” value ([2]; % of patients, N = 73, 9 patients) was 12.3% and the “patients with a Grade 3 SAE” value ([2]; % of patients, N = 73, 19 patients) was 26.0%. The “related AEs by SOC: gastrointestinal disorders” value ([2]; % of patients, N = 73, 34 patients) was 46.6%, the “related AEs by SOC: skin and subcutaneous tissue disorders” value ([2]; % of patients, N = 73, 35 patients) was 47.9% and the “related AEs by SOC: blood and lymphatic system disorders” value ([2]; % of patients, N = 73, 37 patients) was 50.7%. For the same substance, the “related AEs by SOC: general disorders and administration site reactions” value ([2]; % of patients, N = 73, 42 patients) was 57.5%, the “AEs: skin and subcutaneous disorders” value ([2]; % of patients, N = 73, 44 patients) was 60.3% and the “AEs: gastrointestinal disorders” value ([2]; % of patients, N = 73, 45 patients) was 61.6%. For the same substance, the “AEs: general disorders and administration site reactions” value ([2]; % of patients, N = 73, 50 patients) was 68.5%, the “AEs: nervous system disorders including peripheral neuropathy” value ([2]; % of patients, N = 73, 57 patients) was 78.1% and the “SAEs related to ANG1005: patients reporting at least one related SAE” value [2, 8] was 28.8%. For the same substance, the “SAEs: patients reporting at least one event” value [2, 8] was 45.2%, the “treatment discontinued due to AEs” value ([2]; % of subjects, N = 73, 7 subjects) was 9.6% and the “number of AEs that led to death” value ([2]; Arm 3 (hydrocephalus)) was “one”. The “patients who experienced at least one AE” value ([2]; N = 73, all arms) was “All patients”, the “number of AEs that led to death” value ([2]; all arms, N = 73, only septic shock considered potentially related to ANG1005) was 3 and the “overall PR, non-CNS peripheral metastases response” value ([3]; 4/16 patients) was 25%. The “overall partial response (PR), CNS response” value ([3]; 4/18 patients) was 22%, the “stable disease (SD), CNS response” value ([3]; 10/18 patients) was 56% and the “transport across the BBB and tumor penetration” value [4] was “tumor penetration at therapeutic concentrations”. The “neurocognitive function stable or improved (RCI), across the battery of tests” value ([5]; % of patients, Arm 1 (n = 5)) was 40–100%, the “CTB composite score: decline in neurocognitive function” value (shortened to “CTB composite score: decline”) ([5]; % of patients, Arm 1, EOT) was 40% and the “CTB composite score: stable neurocognitive function” value ([5]; % of patients, Arm 1, EOT) was 60%. The “neurocognitive function stable or improved (RCI), across the battery of tests” value ([5]; % of patients, Arm 2 (n = 4)) was 50–75%, the “CTB composite score: decline” value ([5]; % of patients, Arm 2, EOT) was 50% and the “CTB composite score: stable neurocognitive function” value ([5]; % of patients, Arm 2, EOT) was 50%. The “neurocognitive function stable or improved (RCI), across the battery of tests” value ([5]; % of patients, Arm 3 (n = 13)) was 69–100%, the “CTB composite score: decline” value ([5]; % of patients, Arm 3, EOT) was 25% and the “CTB composite score: improved neurocognitive function” value ([5]; % of patients, Arm 3, EOT) was 8%. The “CTB composite score: stable neurocognitive function” value ([5]; % of patients, Arm 3, EOT) was 67%, the “CTB composite score: improved neurocognitive function” value ([5]; Arm 1, EOT) was “no patients” and the “CTB composite score: improved neurocognitive function” value ([5]; Arm 2, EOT) was “no patients”. For the same substance, the PFS rate ([6]; 3 months, Arm 1, 95% CI: 12.2, 56.4) was 33.3%, the PFS rate ([6]; 3 months, Arm 3, 95% CI: 18.9, 53.0) was 35.7% and the “median duration of response” value ([6]; 3 responders (2 in Arm 1, 1 in Arm 3), 95% CI: 2.1, NA) was 13.4 months. It also gave a PFS rate ([6]; 6 months, Arm 1, 95% CI: 8.3, 49.6) of 26.7%, a PFS rate ([6]; 6 months, Arm 3, 95% CI: 18.9, 53.0) of 35.7% and a PFS rate ([6]; 12 months, Arm 1, 95% CI: 2.2, 34.6) of 13.3%. For the same substance, the PFS rate ([6]; 12 months, Arm 3, 95% CI: 11.8, 44.4) was 26.8%, the “clinical benefit rate (SD or better)” value ([6]; Arm 1, mITT) was 46.6% and the progressive disease ([6]; Arm 1, mITT, 8 subjects) was 53.3%. The “median OS” value ([6]; Arm 1, mITT, 95% CI: 3.4, 14.6) was 13.4 months, the “median OS” value ([6]; Arm 1, safety population, 95% CI: 3.06, 13.67) was 6.74 months and the “median duration of response” value ([6]; Arm 1, 95% CI: 2.1, 13.4) was 7.75 months. For the same substance, the “duration (of response) rate” value ([6]; Arm 1, 95% CI: 0.6, 91.0) was 50.0%, the “responders (CR or PR)” value ([6]; Arm 2 (bevacizumab-refractory GBM), mITT, secondary endpoint) was “none” and the PFS rates ([6]; Arm 2, at each time point (3, 6, 12 months), PFS3 is the primary endpoint) was 0. For the same substance, the “clinical benefit rate (SD or better)” value ([6]; Arm 2, mITT) was 22.2%, the “subjects who progressed or died” value ([6]; Arm 2, mITT) was “All subjects” and the progressive disease ([6]; Arm 2, mITT, 7 subjects) was 77.8%. For the same substance, the “median OS” value ([6]; Arm 2, mITT, 95% CI: 1.9, 9.7) was 5.8 months, the “median OS” value ([6]; Arm 2, safety population, 95% CI: 1.94, 6.67) was 3.02 months and the “median duration of response” value ([6]; Arm 3) was “not reached”. For the same substance, the “clinical benefit rate (SD or better)” value ([6]; Arm 3, mITT) was 53.6%, the progressive disease ([6]; Arm 3, mITT, 13 subjects) was 46.4% and the “median OS” value ([6]; Arm 3, mITT, 95% CI: 10.7, 35.3) was 18.2 months. For the same substance, the “median OS” value ([6]; Arm 3, safety population, 95% CI: 8.67, 21.95) was 16.03 months, the “duration (of response) rate” value ([6]; Arm 3, 95% CI: 100,100) was 100% and the “overall median PFS” value ([6]; across all 3 arms, mITT, investigator-assessed, 95% CI: 1.4, 2.1) was 1.4 months. For the same substance, the “overall ORR (CR or PR, RANO, investigator)” value ([6]; mITT n = 52, all arms, 3 subjects, 95% CI: 1.2, 15.9) was 5.8%, the “subjects who progressed or died” value ([6]; mITT n = 52, 47 subjects) was 90.4% and the “overall median OS” value ([6]; mITT population n = 52, 95% CI: 7.03, 14.78) was 12.94 months. For the same substance, the progressive disease ([6]; overall, mITT n = 52, 28 subjects) was 53.8%, the “duration (of response) rate” value ([6]; overall, 95% CI: 5.4, 94.5) was 66.7% and the “overall median OS” value ([6]; safety population n = 73, 95% CI: 6.34, 12.94) was 8.67 months.
